Literature values, collected in US20190154648A1, “METHODS OF ATTENUATING DRUG EXCIPIENT CROSS REACTIVITY” (Chesapeake Therapeutics, LLC, priority 2016, published 2019).
Structures can show the parent of a compound that is named as a salt.

Experiments:
[1] = in vivo

**Q.** Which results are given for `OCCOCCN1CCN(C2=Nc3ccccc3Sc3ccccc32)CC1` [quetiapine fumarate]?
**A.** single-dose toxicity [1]: low; mechanistically unexplainable side effects in repeat-dose toxicity studies (nonhuman primates): pigmentation of the thyroid, transient increases in heart rate, posterior triangular cataracts, and reduced lymphocyte count
